Values after ≈ are worked out from the molar mass of the structure shown.

From US20240270762A1, “PENICILLIN-BINDING PROTEIN INHIBITORS” (priority 2021, published 2024) come the findings set out here.

One assay has as its system A. baumannii CDC-0083. Nature of the assay: microbe, parasite or virus in culture. It is filed as cell-based. The settings on record: Acinetobacter baumannii, CDC0083, read-out: MIC, A. baumannii CDC-0083.
In a further assay the test system is A. baumannii ATCC 19606. In words: microbe, parasite or virus in culture. It is filed as cell-based. The settings on record: Acinetobacter baumannii, ATCC19606, read-out: MIC, A. baumannii ATCC 19606.
In a further assay the target is A. baumannii PBP2 (Acinetobacter baumannii, UniProt D0C8Z9). Nature of the assay: Bocillin-FL competition binding via gel filtration, A. baumannii PBP2. In a few lines: (§1)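 Enzyme was pre-incubated with rising inhibitor concentrations, then Bocillin-FL was added and incubated 15 minutes more. Bound probe was separated by gel filtration and fluorescence read. EC50 came from fitting fraction of PBP labelled versus inhibitor concentration to a Hill equation with ymin, ymax and n.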

A further assay has as its system A. baumannii ATCC 17978. In words: microbe, parasite or virus in culture. It is filed as cell-based. As to conditions: Acinetobacter baumannii, ATCC17978, read-out: MIC, A. baumannii ATCC 17978.
Another assay has as its target T1, A. baumannii PBP1a (Acinetobacter baumannii, UniProt A0ABX6CK30).
T1 sequence (A0ABX6CK30 1-851): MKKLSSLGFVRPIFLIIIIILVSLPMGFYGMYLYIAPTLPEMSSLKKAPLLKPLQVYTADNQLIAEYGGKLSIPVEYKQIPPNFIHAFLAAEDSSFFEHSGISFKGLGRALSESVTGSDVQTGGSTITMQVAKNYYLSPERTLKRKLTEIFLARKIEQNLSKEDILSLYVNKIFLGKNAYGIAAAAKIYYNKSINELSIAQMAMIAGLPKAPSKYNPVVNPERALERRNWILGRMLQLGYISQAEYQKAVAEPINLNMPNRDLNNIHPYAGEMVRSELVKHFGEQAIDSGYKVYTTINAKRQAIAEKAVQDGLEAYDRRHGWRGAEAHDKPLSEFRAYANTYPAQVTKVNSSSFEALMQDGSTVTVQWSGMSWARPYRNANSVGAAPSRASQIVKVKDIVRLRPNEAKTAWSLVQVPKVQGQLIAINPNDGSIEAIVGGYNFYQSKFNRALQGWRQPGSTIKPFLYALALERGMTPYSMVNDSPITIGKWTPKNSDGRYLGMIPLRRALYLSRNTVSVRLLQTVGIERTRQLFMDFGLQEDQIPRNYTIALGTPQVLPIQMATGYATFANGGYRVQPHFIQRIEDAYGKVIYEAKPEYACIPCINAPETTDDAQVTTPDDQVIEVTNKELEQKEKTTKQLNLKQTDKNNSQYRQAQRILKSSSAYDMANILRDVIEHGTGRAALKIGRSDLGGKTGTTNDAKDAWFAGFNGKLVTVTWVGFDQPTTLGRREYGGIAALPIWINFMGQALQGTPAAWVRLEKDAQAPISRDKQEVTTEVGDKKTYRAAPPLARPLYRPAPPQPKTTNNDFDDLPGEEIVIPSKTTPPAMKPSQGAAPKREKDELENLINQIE
Nature of the assay: Bocillin-FL competition binding via gel filtration, A. baumannii PBP1a. As to conditions: competition binding assay using Bocillin-FL via gel filtration; read-out: A. baumannii PBP1a Potency. In outline:
as §1

For another assay, the system named is P. aeruginosa ATCC 27853. Nature of the assay: microbe, parasite or virus in culture. The settings on record: Pseudomonas aeruginosa, ATCC27853, read-out: Minimum inhibitory concentration, P. aeruginosa ATCC 27853. The class given is cell-based.
The subject of a further assay is A. baumannii CDC-0036. In words: microbe, parasite or virus in culture. The class given is cell-based. As to conditions: Acinetobacter baumannii, CDC0036, read-out: MIC, A. baumannii CDC-0036.
In a further assay the test system is A. baumannii 1258916. Nature of the assay: microbe, parasite or virus in culture. As to conditions: Acinetobacter baumannii, 1258916, read-out: MIC, A. baumannii 1258916. It is filed as cell-based, Acinetobacter baumannii.
The next assay relates to A. baumannii CDC-0045. In words: microbe, parasite or virus in culture. The settings on record: Acinetobacter baumannii, CDC0045, read-out: MIC, A. baumannii CDC-0045. The class given is cell-based.
The test system of assay [1] is P. aeruginosa (ΔmexAB-oprM). Nature of the assay: Broth microdilution MIC in iron-depleted CAMHB (IDM). The class given is cell-based. The settings on record: Pseudomonas aeruginosa; iron-depleted CAMHB (IDM); […]; read-out: Minimum inhibitory concentration, P. aeruginosa ΔmexAB-oprM.
In assay [2] the test system is B. humptydooensis ATCC BAA-2767. Nature of the assay: microbe, parasite or virus in culture. The settings on record: Burkholderia humptydooensis, ATCCBAA2767, read-out: Minimum inhibitory concentration (MIC), B. humptydooensis ATCC BAA-2767. It is filed as cell-based.
In a further assay the test system is P. aeruginosa CDC-0054. In words: microbe, parasite or virus in culture. It is filed as cell-based. As to conditions: Pseudomonas aeruginosa, CDC0054, read-out: Minimum inhibitory concentration, P. aeruginosa CDC-0054.
The next assay has as its system P. aeruginosa CDC-0110. Nature of the assay: microbe, parasite or virus in culture. The class given is cell-based. As to conditions: Pseudomonas aeruginosa, CDC0110, read-out: Minimum inhibitory concentration, P. aeruginosa CDC-0110.

Chain of A. baumannii PBP2 (D0C8Z9 whole entry): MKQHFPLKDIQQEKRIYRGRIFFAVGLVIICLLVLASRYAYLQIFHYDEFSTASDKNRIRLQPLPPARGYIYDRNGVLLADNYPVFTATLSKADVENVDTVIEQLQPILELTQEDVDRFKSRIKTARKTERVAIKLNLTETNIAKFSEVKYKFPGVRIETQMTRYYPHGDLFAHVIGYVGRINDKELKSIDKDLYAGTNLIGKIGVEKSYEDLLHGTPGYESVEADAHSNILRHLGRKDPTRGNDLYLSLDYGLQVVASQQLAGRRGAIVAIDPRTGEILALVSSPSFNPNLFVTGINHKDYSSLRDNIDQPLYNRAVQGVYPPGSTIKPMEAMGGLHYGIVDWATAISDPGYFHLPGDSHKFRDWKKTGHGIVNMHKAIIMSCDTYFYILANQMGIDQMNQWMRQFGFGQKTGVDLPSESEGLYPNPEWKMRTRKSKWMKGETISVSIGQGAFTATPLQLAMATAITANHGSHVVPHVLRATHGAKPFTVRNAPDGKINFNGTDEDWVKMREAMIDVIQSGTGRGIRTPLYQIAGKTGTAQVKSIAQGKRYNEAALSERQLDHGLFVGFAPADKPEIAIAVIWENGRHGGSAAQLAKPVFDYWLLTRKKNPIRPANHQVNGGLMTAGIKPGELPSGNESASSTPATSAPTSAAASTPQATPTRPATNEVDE

In the case of `O=C(NCCCN1CCN(C(=O)NC(C(=O)N[C@H]2Cc3ccc(F)c(C(=O)O)c3OB2O)c2cc(F)c(O)c(O)c2Cl)C(=O)C1=O)c1ccc(O)cc1O` (stereo partly drawn) [Example 307, (3R)-3-(2-(2-chloro-5-fluoro-3,4-dihydroxyphenyl)-2-(4-(3-(2,4-dihydroxybenzamido)propyl)-2,3-dioxopiperazine-1-carboxamido)acetamido)-7-fluoro-2-hydroxy-3,4-dihydro-2H-benzo[e][1,2]oxaborinine-8-carboxylic acid], the MIC is below 1 µg/mL in the assay with A. baumannii CDC-0083; below 1 µg/mL with A. baumannii ATCC 19606; below 1 µg/mL in the assay with A. baumannii ATCC 17978; 2 to 4 µg/mL (≈ 2.58 to 5.16 µM) in the assay on P. aeruginosa ATCC 27853; 2 to 4 µg/mL (≈ 2.58 to 5.16 µM) with A. baumannii CDC-0036; below 1 µg/mL with A. baumannii 1258916. Moreover, the MIC with A. baumannii CDC-0045 is below 1 µg/mL; in [1], below 1 µg/mL; in assay [2] it was 8 to 16 µg/mL (≈ 10.3 to 20.6 µM); with P. aeruginosa CDC-0054, 2 to 4 µg/mL (≈ 2.58 to 5.16 µM); in the assay on P. aeruginosa CDC-0110, below 1 µg/mL. Moreover, the EC50 on A. baumannii PBP2 and on A. baumannii PBP1a was below 10 µM in each case.

Regarding `Cc1cnccc1C(=O)NCCCN1CCN(C(=O)NC(C(=O)N[C@H]2Cc3ccc(F)c(C(=O)O)c3OB2O)c2cc(F)c(O)c(O)c2Cl)C(=O)C1=O` (stereo partly drawn) [Example 297, (3R)-3-(2-(2-chloro-5-fluoro-3,4-dihydroxyphenyl)-2-(4-(3-(3-methylisonicotinamido)propyl)-2,3-dioxopiperazine-1-carboxamido)acetamido)-7-fluoro-2-hydroxy-3,4-dihydro-2H-benzo[e][1,2]oxaborinine-8-carboxylic acid], the MIC in the assay with A. baumannii CDC-0083 was below 1 µg/mL; in the assay with A. baumannii ATCC 19606, below 1 µg/mL; with A. baumannii ATCC 17978 it was below 1 µg/mL; in the assay with P. aeruginosa ATCC 27853 it was below 1 µg/mL; in the assay with A. baumannii CDC-0036 it was 2 to 4 µg/mL (≈ 2.64 to 5.27 µM); with A. baumannii 1258916, below 1 µg/mL. For the same molecule, the MIC with A. baumannii CDC-0045 is below 1 µg/mL; in assay [1], below 1 µg/mL; in [2] it was below 1 µg/mL; in the assay with P. aeruginosa CDC-0054, 2 to 4 µg/mL (≈ 2.64 to 5.27 µM); with P. aeruginosa CDC-0110, below 1 µg/mL. The EC50 at A. baumannii PBP2 and at A. baumannii PBP1a was 10 to 50 µM each time.

For the molecule `O=C(NCCCN1CCN(C(=O)N[C@@H](C(=O)N[C@H]2Cc3ccc(F)c(C(=O)O)c3OB2O)c2cc(F)c(O)c(O)c2Cl)C(=O)C1=O)c1ccc(O)cc1Cl` (single isomer, unassigned) [Example 471], the MIC was above 128 µg/mL in the assay with A. baumannii CDC-0083; below 1 µg/mL in the assay with A. baumannii ATCC 19606; below 1 µg/mL with A. baumannii ATCC 17978; below 1 µg/mL in the assay with P. aeruginosa ATCC 27853; 2 to 4 µg/mL (≈ 2.52 to 5.04 µM) in the assay on A. baumannii CDC-0036; below 1 µg/mL in the assay on A. baumannii 1258916. For the same molecule, the MIC (in the assay on A. baumannii CDC-0045; in assay [1]; in assay [2]; in the assay with P. aeruginosa CDC-0054; in the assay on P. aeruginosa CDC-0110) was below 1 µg/mL each time. Besides, the EC50 at A. baumannii PBP2 and at A. baumannii PBP1a was below 10 µM each time.

In the case of `O=C(NCCN1CCN(C(=O)N[C@@H](C(=O)N[C@H]2Cc3ccc(F)c(C(=O)O)c3OB2O)c2cc(F)c(O)c(O)c2Cl)C1=O)Nc1ccc(O)cc1` [Example 279, (R)-3-((R)-2-(2-chloro-5-fluoro-3,4-dihydroxyphenyl)-2-(3-(2-(3-(4-hydroxyphenyl)ureido)ethyl)-2-oxoimidazolidine-1-carboxamido)acetamido)-7-fluoro-2-hydroxy-3,4-dihydro-2H-benzo[e][1,2]oxaborinine-8-carboxylic acid], the MIC in the assay with A. baumannii CDC-0083 is below 1 µg/mL; with A. baumannii ATCC 19606, below 1 µg/mL; with A. baumannii ATCC 17978, below 1 µg/mL; in the assay on P. aeruginosa ATCC 27853, 2 to 4 µg/mL (≈ 2.73 to 5.46 µM); in the assay with A. baumannii CDC-0036, below 1 µg/mL; with A. baumannii 1258916, below 1 µg/mL. In addition, the MIC (with A. baumannii CDC-0045; in assay [1]; in assay [2]; in the assay with P. aeruginosa CDC-0054; with P. aeruginosa CDC-0110) was below 1 µg/mL each time. Moreover, the results for the EC50 at A. baumannii PBP2 and on A. baumannii PBP1a were 10 to 50 µM and below 10 µM, respectively.

As for `O=C(NCCCN1CCN(C(=O)NC(C(=O)N[C@H]2Cc3ccc(F)c(C(=O)O)c3OB2O)c2cc(F)c(O)c(O)c2Cl)C(=O)C1=O)c1ccncc1F` (stereo partly drawn) [Example 400, (3R)-3-(2-(2-chloro-5-fluoro-3,4-dihydroxyphenyl)-2-(4-(3-(3-fluoroisonicotinamido)propyl)-2,3-dioxopiperazine-1-carboxamido)acetamido)-7-fluoro-2-hydroxy-3,4-dihydro-2H-benzo[e][1,2]oxaborinine-8-carboxylic acid], the MIC was 2 to 4 µg/mL (≈ 2.62 to 5.24 µM) in the assay on A. baumannii CDC-0083; below 1 µg/mL with A. baumannii ATCC 19606; below 1 µg/mL with A. baumannii ATCC 17978; 2 to 4 µg/mL (≈ 2.62 to 5.24 µM) with P. aeruginosa ATCC 27853; 2 to 4 µg/mL (≈ 2.62 to 5.24 µM) with A. baumannii CDC-0036; 2 to 4 µg/mL (≈ 2.62 to 5.24 µM) in the assay on A. baumannii 1258916. Also, the MIC with A. baumannii CDC-0045 is below 1 µg/mL; in assay [1], below 1 µg/mL; in assay [2], 2 to 4 µg/mL (≈ 2.62 to 5.24 µM); with P. aeruginosa CDC-0054, below 1 µg/mL; with P. aeruginosa CDC-0110, below 1 µg/mL. Further, the EC50 at A. baumannii PBP2 and on A. baumannii PBP1a was 10 to 50 µM each time.

For `O=C(NCCCN1CCN(C(=O)NC(C(=O)N[C@H]2Cc3ccc(F)c(C(=O)O)c3OB2O)c2cc(F)c(O)c(O)c2Cl)C(=O)C1=O)c1c(F)ccc(O)c1F` (stereo partly drawn) [Example 413, (3R)-3-(2-(2-chloro-5-fluoro-3,4-dihydroxyphenyl)-2-(4-(3-(2,6-difluoro-3-hydroxybenzamido)propyl)-2,3-dioxopiperazine-1-carboxamido)acetamido)-7-fluoro-2-hydroxy-3,4-dihydro-2H-benzo[e][1,2]oxaborinine-8-carboxylic acid], the MIC is 2 to 4 µg/mL (≈ 2.51 to 5.03 µM) with A. baumannii CDC-0083; below 1 µg/mL in the assay on A. baumannii ATCC 19606; below 1 µg/mL with A. baumannii ATCC 17978; below 1 µg/mL with P. aeruginosa ATCC 27853; 2 to 4 µg/mL (≈ 2.51 to 5.03 µM) in the assay with A. baumannii CDC-0036; 2 to 4 µg/mL (≈ 2.51 to 5.03 µM) in the assay with A. baumannii 1258916. Besides, the MIC is 2 to 4 µg/mL (≈ 2.51 to 5.03 µM) in the assay on A. baumannii CDC-0045; below 1 µg/mL in [1]; 2 to 4 µg/mL (≈ 2.51 to 5.03 µM) in assay [2]; below 1 µg/mL with P. aeruginosa CDC-0054; below 1 µg/mL in the assay with P. aeruginosa CDC-0110. For the same molecule, the EC50 on A. baumannii PBP2 was 10 to 50 µM; at A. baumannii PBP1a, below 10 µM.

Consider `O=C(NCCCN1CCN(C(=O)NC(C(=O)N[C@H]2Cc3ccc(F)c(C(=O)O)c3OB2O)c2cc(F)c(O)c(O)c2Cl)C(=O)C1=O)c1ccc(O)c(F)c1Cl` (stereo partly drawn) [Example 418, (3R)-3-(2-(4-(3-(2-chloro-3-fluoro-4-hydroxybenzamido)propyl)-2,3-dioxopiperazine-1-carboxamido)-2-(2-chloro-5-fluoro-3,4-dihydroxyphenyl)acetamido)-7-fluoro-2-hydroxy-3,4-dihydro-2H-benzo[e][1,2]oxaborinine-8-carboxylic acid], for which the MIC with A. baumannii CDC-0083 is above 128 µg/mL; with A. baumannii ATCC 19606 it was below 1 µg/mL; in the assay on A. baumannii ATCC 17978 it was below 1 µg/mL; in the assay on P. aeruginosa ATCC 27853, 2 to 4 µg/mL (≈ 2.46 to 4.92 µM); in the assay on A. baumannii CDC-0036 it was 2 to 4 µg/mL (≈ 2.46 to 4.92 µM); with A. baumannii 1258916, 2 to 4 µg/mL (≈ 2.46 to 4.92 µM). In addition, the MIC (with A. baumannii CDC-0045; in assay [1]; in [2]; in the assay on P. aeruginosa CDC-0054; with P. aeruginosa CDC-0110) was below 1 µg/mL in each case. Further, the EC50 at A. baumannii PBP2 and at A. baumannii PBP1a was below 10 µM throughout.
